# Data: patent US20240415793A1, “Neuroprotective composition comprising pyruvate and citrate” (N.V. Nutricia, priority 2022, published 2024)
# Legend:
# [1] = system: primary rat neuronal-glial cell cultures; test: Seahorse assay (OCR/ECAR), acute 1 h nutrient pre-incubation, resting or seizure-like conditions; format: cell-based; conditions: 1 mM citrate
# Protocol: A Seahorse assay was performed on primary rat neuronal-glial cell cultures to determine the impact of pyruvate and citric acid on glycolytic rates and lactate delivery, mitochondrial respiration and total (glycolytic and mitochondrial) ATP production.
# Rat cortical cells were isolated from embryonic day 18 embryos using a combination of enzymatic and mechanical dissociation of brain cortical rat tissue. Immediately after dissociation, the cells were seeded at a density of 500′000 cells per mL in 96-well plates and grown at 37° C. for two weeks from day in vitro (DIV) 0 until DIV14 in Neurobasal medium supplemented with 2% (v/v) B27, 0.8 mM Magnesium (Mg2+), 25 mM glucose and 1% (v/v) Penicillin/Streptomycin. During this time neuronal axons grew out and formed synaptic contacts. In addition, glial cells, foremost astrocytes, grew and formed contacts with neurons. The incubation in 25 mM glucose accelerated the differentiation and network growth of neurons.
# From DIV14 until DIV17, the cells were incubated in Neurobasal medium supplemented with 2% (v/v) B27, 0.8 mM Mg2+, 5 mM glucose and 1% (v/v) Penicillin/Streptomycin. The switch from high to low glucose was done to approach the low intracerebral glucose concentration of the human brain and create a more physiological metabolic environment.
# The switch from 5 mM to 1 mM glucose matched the glucose concentrations in the human brain. Meanwhile the switch from high (0.8 mM) to low (0.1 mM) Mg^2+ increases the electrical firing frequency of neurons because Mg2+ is an inhibitor of excitatory NMDA-type ionotropic glutamate receptors, which account for most of the neuronal firing in this cell culture model. The increase in neuronal firing caused by incubation in 0.1 mM Mg^2+ increases the energy production of neurons and glial cells as reflected in the increase in basal respiration (FIG. 1B and E). After 1 hour of pre-incubation in the Seahorse medium containing the nutrients, the oxygen consumption rate [OCRs] and extracellular acidification rate [ECARs] of the neuroglial culture were measured in the Seahorse assay.
# The oxygen consumption rates (OCRs) and extracellular acidification rates (ECARs) of cells seeded in 96-well plates were monitored in real time at 37° C. in unbuffered Hanks Balanced Salt Solution (HBSS). The OCRs represent foremost mitochondrial respiration, and to a minor extent non-mitochondrial respiration. The ECARs relate foremost to the acidification of the medium with lactate produced through glycolysis and secreted by the cells into the medium (Table 1).
# During the Seahorse run, both the OCRs and ECARs were measured simultaneously at baseline and following the injection of compounds by the Seahorse instrument (Table 1). HBSS was supplemented with glucose from the start and no glucose was injected through the Seahorse instruments. Measurements were repeated three times at baseline and three times after each compound injection.
# After the initial baseline measurement, oligomycin (OM) was injected. OM blocks mitochondrial ATP synthase (complex V) and therefore decreases mitochondrial respiration. The OCRs after OM injection are due to the mitochondrial proton leak. They enable to determine whether the test nutrients impact the proton leak. The difference in OCRs at baseline and after OM injection is the amount of oxygen used for mitochondrial ATP synthesis at baseline. From this difference in OCR, the mitochondrial ATP production rates are calculated.
# After OM, uncoupling agent carbonyl cyanide-p- trifluoromethoxyphenyl-hydrazon [FCCP] was injected which collapses the proton gradient across the inner mitochondrial membrane established during respiration and required for ATP synthesis. The cells attempt to restore the proton gradient following FCCP injection by maximizing respiration. […]
# [2] = system: primary rat neuronal-glial cell cultures; test: as above; format: cell-based; conditions: for increase in OM-induced glycolytic rates (tended): FIG. 3D
# [3] = system: Phosphofructokinase 1 (PFK1); conditions: tissue- and brain-specific isoforms; cited from earlier work
smiles,measurement,setting,value
O=C(O)CC(O)(CC(=O)O)C(=O)O [citrate],increase in total (mitochondrial and glycolytic) ATP production,"[1]; 0.1 mM Mg2+ control medium, FIG. 3A",~60%
same,increase in basal mitochondrial respiration,"[1]; 0.1 mM Mg2+ control medium, FIG. 3B",~40%
same,increase in basal glycolytic rates,"[1]; 0.1 mM Mg2+ medium, FIG. 3C",~20%
same,increase in OM-induced glycolytic rates (tended),"[2]; 1 mM citrate, 0.1 mM Mg2+ medium",~15%
same,increase in total (mitochondrial and glycolytic) ATP production,"[2]; 1 mM citrate, 0.8 mM Mg2+ control medium, FIG. 3A",~75%
same,increase in basal mitochondrial respiration,"[2]; 1 mM citrate, 0.8 mM Mg2+ control medium, FIG. 3B",~100%
same,increase in FCCP-driven maximal glycolytic capacity (tended),"[2]; 1 mM citrate, 0.8 mM Mg2+ control medium, FIG. 3E",~35%
same,increase in basal glycolytic rates,"[2]; 1 mM citrate, 0.8 mM Mg2+ medium, FIG. 3C",~70%
same,increase in OM-induced glycolytic rates (tended),"[2]; 1 mM citrate, 0.8 mM Mg2+ medium",~60%
same,increase in mitochondrial oxygen consumption rates (OCR) at baseline,"[2]; resting, high Mg2+ medium (DMEM, 5 mM glucose), dose-dependent, vs control medium without citrate, FIG. 1E",≤ 25%
same,increase in OM-induced proton leak,"[2]; resting, high Mg2+ medium (DMEM, 5 mM glucose), vs control medium without citrate, FIG. 1F",≤ 10%
same,effect on FCCP-driven maximal respiratory capacity,"[2]; resting, high Mg2+ medium (DMEM, 5 mM glucose), vs control medium without citrate, FIG. 1G",not significantly impacting
same,increase in OM- and FCCP-induced maximal glycolytic capacity,"[2]; resting, high Mg2+ medium, 0.25 mM citrate, FIG. 2E, F",10-15%
same,increase in basal glycolytic rates and lactate secretion,"[2]; resting, high Mg2+ medium, acute, dose-dependent, FIG. 2D",~25%
same,concentrations at which PFK1 isoforms are inhibited,[3],above 100 μM
